The values that follow come from US20240197700A1, “Methods and Compositions for Treating Lysosomal Storage Disorders” (Sanford Health, priority 2021, published 2024).

“Also recorded” adds a separate entry of the source.

The assay relates to tripeptidyl peptidase 1 (TPP1). As to the kind of experiment: TPP1 enzyme activity in MEF lysates. Format: cell-based, mouse. On the procedure: Treatment with AF38469 increases PPT1 and TPP1 enzyme activity in Batten disease mouse embryonic fibroblasts. Since AF38469 increases the expression of lysosomal genes including the PPT1 and TPP1 enzymes, we asked whether AF38469 increases the overall activity levels of these enzymes in cellulo. Wild type (WT) and mutant cells were treated with vehicle or AF38469 (40 nM). Cells were plated on day 0 and dosed with drug-containing media on DIV3 and DIV5. Cells were lysed, and protein quantification and enzyme activity assay were performed on DIV7. Data was analyzed with GraphPad Prism™. Two-way ANOVA. Mean±S.E.M. Tukey's multiple comparisons test. *p<0.05, **p<0.01, ***p<0.001, ****p<0.0001. Palmitoyl-protein thioesterase 1 (PPT1) is the lysosomal enzyme mutated in CLN1 disease and removes thioester-linked fatty acyl groups from modified cysteines of substrate proteins. Tripeptidyl peptidase 1 (TPP1) is the lysosomal enzyme mutated in CLN2 disease and has broad substrate specificity against various proteins degraded in the lysosome after cleavage.
Since LM11A-31 stimulates the nuclear translocation of transcription factors responsible for lysosome biogenesis, we asked whether LM11A-31 increases the overall activity levels of lysosomalenzymes in cellulo. […] Wild type (WT) and mutant cells were treated with vehicle or LM11A-31 (100 nM). Cells were plated on day 0 and dosed with drug-containing media on DIV3 and DIV5. Cells were lysed, and protein quantification and enzyme activity assay were performed on DIV7. Data was analyzed with GraphPad Prism™. Two-way ANOVA. Mean±S.E.M. Tukey's multiple comparisons test. *p<0.05, **p<0.01, ***p<0.001, ****p<0.0001. […] Palmitoyl-protein thioesterase 1 (PPT1) is the lysosomal enzyme mutated in CLN1 disease and removes thioester-linked fatty acyl groups from modified cysteines of substrate proteins. Tripeptidyl peptidase 1 (TPP1) is the lysosomal enzyme mutated in CLN2 disease and has broad substrate specificity against various proteins degraded in the lysosome after cleavage. Mutations in the CTSD gene, encoding cathepsin d, a lysosomal protease that is involved in the recycling and degradation, is a known cause of Cln10 disease.
Since semaglutide improves lysosomal health and function across diverse cell models of lysosomal storage disorder, we asked whether the function of the lysosomes was improved. […] Additionally, a combination of semaglutide and AF38469, a sortilin inhibitor, increased overall levels of activity for both enzymes in cell lysates. Wild type (WT) and mutant cells were treated with vehicle or semaglutide (100 nM) or AF38469 (40 nM) and semaglutide (100 nM). Cells were plated on in vitro day 0 and dosed with drug-containing media on DIV3 and DIV5. Cells were lysed, and protein quantification and enzyme activity assay were performed on DIV7. Data was analyzed with GraphPad Prism™. Two-way ANOVA. Mean±S.E.M. Tukey's multiple comparisons test. *p<0.05, **p<0.01, ***p<0.001, ****p<0.0001. […] (FIG. 20A). […] Levels of TPP1 enzyme activity in Cln2^R207X were not altered by treatment of semaglutide, as was expected given the lack of a functional TPP1 protein in this model (FIG. 20B). […] Levels of TPP1 enzyme activity in Cln2^R207X were not altered by treatment of AF38469 and semaglutide, as was expected given the lack of a functional TPP1 protein in this model. n=5 wells per treatment (FIG. 20D).

`Cc1cccc(NC(=O)c2ccc(C(F)(F)F)cc2C(=O)O)n1` [AF38469, 2-((6-methylpyridin-2-yl)carbamoyl)-5-(trifluoromethyl)benzoic acid]: the TPP1 enzyme activity entry is recorded as “not altered” (AF38469 40 nM, Cln2^R207X MEFs) and “increased the overall levels of activity; also recorded: significantly increased” (AF38469 40 nM, wild type, Cln3^Δex7/8, Cln6^nclf, Cln11^−/− MEFs, DIV7).

Regarding `CC[C@H](C)[C@H](N)C(=O)NCCN1CCOCC1` [LM11A-31, N-[2-(morpholin-4-yl)ethyl]-L-isoleucinamide], where the note is “LM11A-31 100 nM, wild type and Cln3^Δex7/8 MEFs, DIV7”, the TPP1 enzyme activity entry is “significantly increased”.

Turning to semaglutide, the TPP1 enzyme activity entry reads like this: (semaglutide 100 nM, Cln2^R207X MEFs) “not altered”; (semaglutide 100 nM, wild type, Cln3^Δex7/8 MEFs, DIV7) “significantly increased”.
